Counter-ions that a name gives are not always drawn. Like-named read-outs stand apart in the source and are kept apart here.
Key:
[1] = target: human thrombin (Homo sapiens, UniProt P00734); assay: Inhibition of the amidase activity of thrombin (chromogenic substrate), Kass; format: biochemical; conditions: purified human thrombin, N-benzoyl-L-Phe-L-Val-L-Arg-p-nitroanilide substrate, pH 7.4; mean over a range of concentrations
Protocol: The assay is carried out by mixing 50 μl buffer (0.03M Tris, 0.15M NaCl, pH 7.4) with 25 μl of human thrombin solution (purified human thrombin, Enzyme Research Laboratories, South Bend, Ind., at 8 NIH units/ml) and 25 μl of test compound in a solvent (50% aqueous methanol (v:v)). Then 150 μl of an aqueous solution of the chromogenic substate (at 0.25 mg/ml) are added and the rates of hydrolysis of the substrate are measured by monitoring the reactions at 405 nm for the release of p-nitroaniline. Standard curves are constructed by plotting free thrombin concentration against hydrolysis rate. The hydrolysis rates observed with test compounds are then converted to “free thrombin” values in the respective assays by use of the standard curves. The bound thrombin (bound to test compound) is calculated by subtracting the amount of free thrombin observed in each assay from the known initial amount of thrombin used in the assay. The amount of free inhibitor in each assay is calculated by subtracting the number of moles of bound thrombin from the number of moles of added inhibitor (test compound).
The Kass value is the hypothetical equilibrium constant for the reaction between thrombin and the test compound (I). [formula]
Kass is calculated for a range of concentrations of test compounds and the mean value reported in units of liter per mole. […] For example, each of the particularly preferred examples of the invention listed above was determined to have a Kass of at least 100×10^6 L/mole.

[2] = Octanol/water distribution coefficient logD at pH 7.4; format: physicochemical
[3] = test system: thrombin time (TT) in test plasma; assay: Anticoagulation determination: thrombin time (TT) in plasma; format: biochemical; conditions: compound added to plasma; linear extrapolation to doubling of the clotting time
Protocol: Dog plasma and rat plasma are obtained from conscious mixed-breed hounds (either sex, hazelton-LRE, Kalamazoo, Mich., U.S.A.) or from anesthetized male Sprague-Dawley rats (Harlan Sprague-Dawley, Inc., Indianapolis, Ind., U.S.A.) by venipuncture into 3.8 percent citrate. Fibrinogen is prepared from in-date ACD human blood as the fraction I-2 according to previous procedures and specifications. Smith, Biochem. J., 185, 1-11 (1980); and Smith, et al., Biochemistry, 11, 2958-2967 (1972). Human fibrinogen is also purchased as 98 percent pure/plasmin free from American Diagnostica, Greenwich, Conn. Coagulation reagents ACTIN, Thromboplastin, and Human plasma are from Baxter Healthcare Corp., Dade Division, Miami, Fla. Bovine thrombin from Parke-Davis (Detroit, Mich.) is used for coagulation assays in plasma.
Coagulation assay procedures are as previously described. Smith, et al., Thrombosis Research, 50, 163-174 (1988). A CoAScreener coagulation instrument (American LABor, Inc.) is used for all coagulation assay measurements. The thrombin time (TT) is measured by adding 0.05 ml saline and 0.05 ml thrombin (10 NIH units/ml) to 0.05 ml test plasma. The activated partial thromboplastin time (APTT) is measured by incubation of 0.05 ml test plasma with 0.05 ml Actin reagent for 120 seconds followed by 0.05 ml CaCl2 (0.02M). The prothrombin time (PT) is measured by adding 0.05 ml saline and 0.05 ml Thromboplastin-C reagent to 0.05 ml test plasma. The compounds of formula I are added to human or animal plasma over a wide range of concentrations to determine prolongation effects on the TT, APTT and PT assays. Linear extrapolations are performed to estimate the concentrations required to double the clotting time for each assay. Each of the particularly preferred examples of the invention listed above was determined to have a TT value of less than 50 ng/mL. For example, the respective values (in ng/mL) for TT were 6, 6 and 23 for the compounds of Examples 1, 3 and 5.

Row | Kass (hypothetical equilibrium constant for the reaction between thrombin and the test compound) [1] | logD [2] | ΔlogD(7.4) [2] | Structure (SMILES) | TT (concentration required to double the thrombin clotting time) [3] | ΔlogD(7.4) ([2]; change versus the corresponding amidino-phenyl compound) | logD ([2]; octanol/water distribution coefficient, read-out: logD(7.4))
1 | 1e+08 L/mol | 1.91 | 5.80 log units | CCS(=O)(=O)N[C@H](CC1CCCCC1)C(=O)N1CCC[C@H]1C(=O)NCc1ccc(C(=N)N)c(O)c1 [Example 5, N-ethylsulfonyl-D-cyclohexylalanyl-N-[[4-(aminoiminomethyl)-3-hydroxyphenyl]methyl]-L-prolinamide hydrochloride] | 23 ng/mL |  | 
2 | 7.7e+08 L/mol |  |  | N=C(N)c1ccc(CNC(=O)[C@@H]2CCCN2C(=O)[C@H](N)CC2CCCCC2)cc1O [Example 1, D-cyclohexylalanyl-N-[[4-(aminoiminomethyl)-3-hydroxyphenyl]methyl]-L-prolinamide dihydrochloride] | 6 ng/mL |  | 

Row | Structure (SMILES) | Kass (hypothetical equilibrium constant for the reaction between thrombin and the test compound) [1] | logD [2] | ΔlogD(7.4) [2] | TT (concentration required to double the thrombin clotting time) [3] | ΔlogD(7.4) ([2]; change versus the corresponding amidino-phenyl compound) | logD ([2]; octanol/water distribution coefficient, read-out: logD(7.4))
3 | N=C(N)c1ccc(CNC(=O)[C@@H]2CCCN2C(=O)[C@@H](CC2CCCCC2)NCC(=O)O)cc1O [Example 3, N-carboxymethyl-D-cyclohexylalanyl-N-[[4-(aminoiminomethyl)-3-hydroxyphenyl]methyl]-L-prolinamide hydrochloride] | 1,200×10^6 L/mole |  |  | 6 ng/mL | 1.13 log units | 0.55

Source: patent US6534650B2, “Benzisoxazole and 4-amidino-3-hydroxyphenyl chemical intermediates” (Eli Lilly and Company, priority 1996, dated 2003)
